Experimental data published in US8952033B2, “4-anilinofuro[2,3-b]quinoline derivatives, their preparation processes, and pharmaceutical compositions comprising the same” (Kaohsiung Medical University, priority 2011, dated 2015).
In brackets after ≈: the same amount, converted by molar mass. Read-outs that look alike come from different tables or passages of the source. Marks after values point to notes of the source that are not given here.

Legend:
[1] = tested on: MCF-7 (breast cancer cell); experiment: MTT antiproliferative assay (cell growth %, GI50), MCF-7; type: cell-based; parameters: Cell growth (%) MCF-7: unit of the concentration uncertain; conditions: for SI MCF-7: GI50 MRC-5 / GI50 MCF-7; for activity at 4000 µg/mL / activity at 20000 µg/mL / GI50: Homo sapiens; for activity at 4000 µg/mL: 4 mg/ml; for activity at 4000 µg/mL / activity at 20000 µg/mL / Cell growth (%) MCF-7: 48 hours, MTT; for activity at 20000 µg/mL: 20 mg/ml
Description: (§1) Antiproliferative activities of the compounds of this invention were evaluated substantially according to the method as described in Tseng, C. […] The cells were treated with the test compounds, i.e., the compounds of this invention (in dimethylsulfoxide (DMSO)), or DMSO for 48 hours.
(§2) Before and after the treatment with the test compounds or DMSO, 3-(4,5-dimethylthiazol-2-yl)-2,5-diphenyltetrazolium bromide (MTT, 2 mg/mL, 100 μL) was added to each of the cultures, followed by cultivation for 2 hours. The resultant formazan was dissolved by the addition of DMSO. Absorbance at 570 nm (OD570) was measured using a microtiter plate reader (Dynex MRX-II).
(§3) Determination of GI50 was conducted thrice for each test compound. GI50 is expressed as mean±SD.

[2] = tested on: NCI-H460 (non-small cell lung carcinoma cell); experiment: MTT antiproliferative assay (cell growth %, GI50), NCI-H460; type: cell-based; parameters: Cell growth (%) NCI-H460: unit of the concentration uncertain; conditions: for SI NCI-H460: GI50 MRC-5 / GI50 NCI-H460; for activity at 4000 µg/mL / activity at 20000 µg/mL / GI50: Homo sapiens; for activity at 4000 µg/mL: 4 mg/ml; for activity at 4000 µg/mL / activity at 20000 µg/mL / Cell growth (%) NCI-H460: 48 hours, MTT; for activity at 20000 µg/mL: 20 mg/ml
Description: as §1, §2, §3

[3] = tested on: SF-268 (central nervous system carcinoma cell); experiment: MTT antiproliferative assay (cell growth %, GI50), SF-268; type: cell-based; parameters: Cell growth (%) SF-268: unit of the concentration uncertain; conditions: for SI SF-268: GI50 MRC-5 / GI50 SF-268; for GI50: Homo sapiens; for Cell growth (%) SF-268: 48 hours, MTT
Description: as §1, §2, §3

[4] = tested on: MRC-5 (human lung fibroblast cell); experiment: GI50 determination on normal cell line MRC-5; type: cell-based
Description: as §1, §2, §3

[5] = Determination of solubility in water; type: physicochemical; conditions: for Solubility in water: 25±0.1° C., stirred overnight, UV-VIS
Description: Determination of solubility in water was conducted substantially according to the method as described in Vougogiannopoulou, K. et al. (2008), J. Med. Chem., 51:6421-6431. An excess amount of the respective test compound was added into water, followed by sonication for 5 minutes. The resultant mixture was stirred at ambient temperature (25±0.1° C.) overnight. Centrifugation at 4000 rpm and 25° C. was conducted for 5 minutes. Absorbance of the sample of the respective test compound was measured at 315-420 nm using a UV-VIS spectrophotometer (JASCO UV-Visible V570). For each test compound, a standard curve was generated by plotting concentrations of standard solutions and the corresponding absorbances. The absorbance of the sample of each test compound was then converted to solubility in water (μg/mL) using the corresponding standard curve.

[6] = Single-dose pharmacokinetic analysis in CD-1 mice; type: in vivo
Description: CD-1 mice were divided into two groups. The first group of mice (n=9) were used to assess the singe-dose pharmacokinetics of the test compounds after intravenous administration, and the second group of mice (n=9) were utilized to assess the singe-dose pharmacokinetics of the test compounds after oral administration. All of the mice were fasted from 4 hours before the administration of the test compounds until 4 hours after the administration of the test compounds.
The assessment for singe-dose pharmacokinetics of the test compounds after intravenous administration was performed as follows. The first group of mice were further randomly divided into three subgroups including compound 13a group (n=3), compound 14a group (n=3), and compound 1 group (n=3). Compounds 13a, 14a, 1 (in polyethylene glycol 400/ethanol/water (30/5/65, v/v/v)) were respectively administered to the mice in compound 13a group, compound 14a group, and compound 1 group at a dose of 2 mg/kg via tail vein injection. Blood samples (0.25 mL) were collected from the mice by virtue of cardiac puncture right before the intravenous administration, and at 2 min, 5 min, 15 min, 30 min, 1 hr, 1.5 hr, 2 hr, 4 hr, 6 hr, 9 hr, 24 hr, and 27 hr after the intravenous administration.
The assessment for singe-dose pharmacokinetics of the test compounds after oral administration was conducted as follows. The second group of mice were further randomly divided into three subgroups including compound 13a group (n=3), compound 14a group (n=3), and compound 1 group (n=3). Compounds 13a, 14a, 1 (in 0.5% methylcellulose) were respectively administered to the mice in compound 13a group, compound 14a group, and compound 1 group at a dose of 20 mg/kg via tube feeding. Blood samples (0.25 mL) were collected from the mice by virtue of cardiac puncture right before the oral administration, and at 15 min, 30 min, 1 hr, 1.5 hr, 2 hr, 4 hr, 6 hr, 9 hr, 24 hr, and 27 hr after the oral administration.
Each of the blood samples was placed in a 0.5 mL Microtainer® tube containing anticoagulant EDTA-K2, followed by mixing evenly. Centrifugation at 7000 g and 4° C. was conducted for 5 minutes. Plasma was collected and was mixed uniformly with a proper amount of acetonitrile, followed by centrifugation. The resultant supernatant was acquired, and was injected into a reversed-phase Biosil ODS column so as to determine the concentration of the respective test compound in plasma (i.e., the plasma concentration of the respective test compound) using a LC-MS/MS system (Waters 2795 LC and Micromass Quattro Ultima). The singe-dose pharmacokinetic parameters of the respective test compound were calculated from the obtained concentration of the respective test compound in plasma (i.e., the obtained plasma concentration of the respective compound) at different time points using WinNonlin Standard Program (version 3.1, Pharsight Corp.)

[7] = MCF7, mean±SD, read-out: GI50 MCF-7
[8] = NCI-H460, mean±SD, read-out: GI50 NCI-H460
[9] = SF-268, mean±SD, read-out: GI50 SF-268
[10] = MRC5, normal cell line, mean±SD, read-out: GI50 MRC-5
[11] = intravenous administration, 2 mg/kg

GI50 [1, 7] [µM]	GI50 [2, 8] [µM]	GI50 [3, 9] [µM]	Solubility in water [5] [µg/mL]	Compound	SI MCF-7 [1]	activity at 4000 µg/mL ([1]; MCF7) [%]	activity at 20000 µg/mL ([1]; MCF7) [%]	SI NCI-H460 [2]	activity at 4000 µg/mL ([2]; NCI-H460) [%]	activity at 20000 µg/mL ([2]; NCI-H460) [%]	SI SF-268 [3]	GI50 [4, 10] [µM]	also measured
9.46 ± 0.23	16.2 ± 0.36	32.5 ± 1.25	36 (≈ 88 µM)	C/C(=N\OCCCN)c1ccc(Nc2c3ccccc3nc3occ(Cl)c23)cc1 [Compound 14c, (E)-1-(4-(3-Chlorofuro[2,3-b]quinolin-4-ylamino)phenyl)ethanone O-3-aminopropyl oxime]	4.98	46	0	2.90	28	0	1.46	47.1 ± 2.27	
31.01 ± 0.03	0.71 ± 0.02	9.14 ± 0.72	25 (≈ 63.3 µM)	C/C(=N\OCCN)c1ccc(Nc2c3ccccc3nc3occ(Cl)c23)cc1 [Compound 14a, (E)-1-(4-(3-Chlorofuro[2,3-b]quinolin-4-ylamino)phenyl)ethanone O-2-aminoethyl oxime]	1.52	59	-1	66.25	32	-1	5.15	47 ± 1.21	AUC(0-inf) [6, 11]: 409.8 ng·h/mL; CL [6, 11]: 81.3 mL/min/kg; MRT [6, 11]: 6.1 h; Vss [6, 11]: 30.0 L/kg; Vz [6, 11]: 103.8 L/kg; Cmax ([6]; intravenous administration, 2 mg/kg, extrapolated plasma concentration at 0 hr): 3601 ng/mL; t1/2 ([6]; intravenous administration, 2 mg/kg, from 0.5-1.5 hr (compd. 1) or 9-27 hr (13a, 14a)): 14.7^d hr; Bioavailability ([6]; oral 20 mg/kg versus intravenous 2 mg/kg): 5.9%; AUC(0-inf) ([6]; oral administration, 20 mg/kg): 242.6 ng·h/mL; Cmax ([6]; oral administration, 20 mg/kg): 114.3 ng/mL; MRT ([6]; oral administration, 20 mg/kg): 2.8 h; Time after which compound was unable to be detected in plasma ([6]; oral administration, 20 mg/kg): 9 h; Tmax ([6]; oral administration, 20 mg/kg): 1.0 h; t1/2 ([6]; oral administration, 20 mg/kg, from 2-6 hr (compd. 1), 2-24 hr (13a), 2-9 hr (14a)): 1.7^f hr
				COc1cccc2c1C(=O)c1c(O)c3c(c(O)c1C2=O)C[C@@](O)(C(C)=O)C[C@@H]3O[C@H]1C[C@H](N)[C@H](O)[C@H](C)O1 [daunorubicin, reference compound]	0.17			2.32			1.47		GI50 ([1]; MCF7, read-out: GI50 MCF-7): 5.03 ± 0.05 µM; GI50 ([2]; NCI-H460, read-out: GI50 NCI-H460): 0.38 ± 0.04 µM; GI50 ([3]; SF-268, read-out: GI50 SF-268): 0.6 ± 0.02 µM; GI50 ([4]; MRC5, read-out: GI50 MRC-5): 0.88 ± 0.11 µM
36.93 ± 0.31	3.86 ± 0.13	7.48 ± 0.366	17 (≈ 40 µM)	COc1ccc2c(Nc3ccc(/C(C)=N/OCCN)cc3)c3c(Cl)coc3nc2c1 [Compound 16a, (E)-1-(4-(3-Chloro-7-methoxyfuro[2,3-b]quinolin-4-ylamino)phenyl)ethanone O-2-aminoethyl oxime]	1.28	66	-1	12.30	13	3	6.34	47.46 ± 0.38	
11.52 ± 0.02	7.08 ± 0.67	7.53 ± 0.41	58 (≈ 155 µM)	C/C(=N\OCCCN)c1ccc(Nc2c3ccccc3nc3occc23)cc1 [Compound 13c, (E)-1-(4-(furo[2,3-b]quinolin-4-ylamino)phenyl)ethanone O-3-aminopropyl oxime]	3.73	52	-3	6.07	22	-2	5.71	43 ± 0.86	
				COc1ccc2c(Nc3ccc(/C(C)=N/OCCN(C)C)cc3)c3c(Cl)coc3nc2c1 [Compound 16b, (E)-1-(4-(3-Chloro-7-methoxyfuro[2,3-b]quinolin-4-ylamino)phenyl)ethanone O-2-(dimethylamino) ethyl oxime]									Cell growth (%) MCF-7 ([1]; 4 (unit uncertain)): 51%; Cell growth (%) MCF-7 ([1]; 20 (unit uncertain)): −2%; Cell growth (%) NCI-H460 ([2]; 4 (unit uncertain)): 74%; Cell growth (%) NCI-H460 ([2]; 20 (unit uncertain)): −1%; Cell growth (%) SF-268 ([3]; 4 (unit uncertain)): 102%; Cell growth (%) SF-268 ([3]; 20 (unit uncertain)): −1%
36.23 ± 0.05	3.96 ± 0.14	8.15 ± 0.44	16 (≈ 41 µM)	COc1ccc2c(Nc3ccc(/C(C)=N/OCCN)cc3)c3ccoc3nc2c1 [Compound 15a, (E)-1-(4-(7-Methoxyfuro[2,3-b]quinolin-4-ylamino)phenyl)ethanone O-2-aminoethyl oxime]	1.24	71	8	11.39	14	11	5.53	45.11 ± 0.31	
				COc1ccc2c(Nc3ccc(/C(C)=N/OCCCN(C)C)cc3)c3c(Cl)coc3nc2c1 [Compound 16d, (E)-1-(4-(3-Chloro-7-methoxyfuro[2,3-b]quinolin-4-ylamino)phenyl)ethanone O-3-(dimethylamino) propyl oxime]									Cell growth (%) MCF-7 ([1]; 4 (unit uncertain)): 66%; Cell growth (%) MCF-7 ([1]; 20 (unit uncertain)): 1%; Cell growth (%) NCI-H460 ([2]; 4 (unit uncertain)): 66%; Cell growth (%) NCI-H460 ([2]; 20 (unit uncertain)): 4%; Cell growth (%) SF-268 ([3]; 4 (unit uncertain)): 103%; Cell growth (%) SF-268 ([3]; 20 (unit uncertain)): 1%

Compound	GI50 [1, 7] [µM]	GI50 [2, 8] [µM]	GI50 [3, 9] [µM]	Solubility in water [5] [µg/mL]	SI MCF-7 [1]	activity at 4000 µg/mL ([1]; MCF7) [%]	activity at 20000 µg/mL ([1]; MCF7) [%]	SI NCI-H460 [2]	activity at 4000 µg/mL ([2]; NCI-H460) [%]	activity at 20000 µg/mL ([2]; NCI-H460) [%]	SI SF-268 [3]	GI50 [4, 10] [µM]	also measured
CC[C@@]1(O)C(=O)OCc2c1cc1n(c2=O)Cc2cc3ccccc3nc2-1 [camptothecin, reference compound]	11.1 ± 0.61	0.03 ± 0.003	0.19 ± 0.006		0.08			29.67			4.68	0.89 ± 0.9	
C/C(=N\OCCN)c1ccc(Nc2c3ccccc3nc3occc23)cc1.Cl [Hydrochloride salt of 13a, hydrochloride salt of (E)-1-(4-(furo[2,3-b]quinolin-4-ylamino)phenyl)ethanone O-2-aminoethyl oxime]				1049									Solubility in water relative to compound 13a ([5]; fold versus compound 13a): about 17 times
